Test results taken from ChEMBL document CHEMBL1143464, “Trifluoromethyl group as a pharmacophore: effect of replacing a CF3 group on binding and agonist activity of a glucocorticoid receptor ligand” (Bioorg Med Chem Lett, 2005).
pEC50, pIC50: −log10 of the molar value.

Tests used:
[1] = biological target: T1, Progesterone receptor (Homo sapiens, UniProt P06401); test: Binding affinity towards progesterone receptor using fluorescence polarization competitive binding assay
T1 sequence (P06401 whole entry): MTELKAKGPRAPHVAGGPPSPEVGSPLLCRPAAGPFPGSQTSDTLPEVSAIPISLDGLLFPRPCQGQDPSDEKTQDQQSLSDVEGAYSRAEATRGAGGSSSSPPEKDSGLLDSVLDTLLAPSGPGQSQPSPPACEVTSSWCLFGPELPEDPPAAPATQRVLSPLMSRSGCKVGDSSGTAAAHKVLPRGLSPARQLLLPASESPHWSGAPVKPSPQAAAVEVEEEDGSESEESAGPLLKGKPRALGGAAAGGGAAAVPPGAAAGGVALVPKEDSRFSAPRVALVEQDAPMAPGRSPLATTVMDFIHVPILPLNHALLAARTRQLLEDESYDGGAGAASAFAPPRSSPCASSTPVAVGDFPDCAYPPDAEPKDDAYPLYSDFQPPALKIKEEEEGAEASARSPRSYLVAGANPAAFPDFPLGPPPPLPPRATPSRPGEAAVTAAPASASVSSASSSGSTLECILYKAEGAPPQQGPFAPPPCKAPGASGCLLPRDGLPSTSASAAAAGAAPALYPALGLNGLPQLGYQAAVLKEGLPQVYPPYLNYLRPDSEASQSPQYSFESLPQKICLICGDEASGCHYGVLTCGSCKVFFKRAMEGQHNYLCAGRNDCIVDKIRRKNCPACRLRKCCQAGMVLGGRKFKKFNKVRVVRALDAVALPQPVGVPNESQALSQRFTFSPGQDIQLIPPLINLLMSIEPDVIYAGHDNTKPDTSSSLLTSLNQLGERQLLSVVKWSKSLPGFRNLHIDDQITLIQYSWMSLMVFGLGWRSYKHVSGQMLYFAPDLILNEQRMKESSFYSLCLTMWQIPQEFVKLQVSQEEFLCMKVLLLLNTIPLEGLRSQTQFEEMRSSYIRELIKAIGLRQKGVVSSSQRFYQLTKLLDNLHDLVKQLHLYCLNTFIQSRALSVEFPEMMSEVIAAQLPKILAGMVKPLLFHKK

[2] = biological target: T2, Glucocorticoid receptor (Homo sapiens, UniProt P04150); test: Binding affinity towards glucocorticoid receptor using fluorescence polarization competitive binding assay
T2 sequence (P04150 whole entry): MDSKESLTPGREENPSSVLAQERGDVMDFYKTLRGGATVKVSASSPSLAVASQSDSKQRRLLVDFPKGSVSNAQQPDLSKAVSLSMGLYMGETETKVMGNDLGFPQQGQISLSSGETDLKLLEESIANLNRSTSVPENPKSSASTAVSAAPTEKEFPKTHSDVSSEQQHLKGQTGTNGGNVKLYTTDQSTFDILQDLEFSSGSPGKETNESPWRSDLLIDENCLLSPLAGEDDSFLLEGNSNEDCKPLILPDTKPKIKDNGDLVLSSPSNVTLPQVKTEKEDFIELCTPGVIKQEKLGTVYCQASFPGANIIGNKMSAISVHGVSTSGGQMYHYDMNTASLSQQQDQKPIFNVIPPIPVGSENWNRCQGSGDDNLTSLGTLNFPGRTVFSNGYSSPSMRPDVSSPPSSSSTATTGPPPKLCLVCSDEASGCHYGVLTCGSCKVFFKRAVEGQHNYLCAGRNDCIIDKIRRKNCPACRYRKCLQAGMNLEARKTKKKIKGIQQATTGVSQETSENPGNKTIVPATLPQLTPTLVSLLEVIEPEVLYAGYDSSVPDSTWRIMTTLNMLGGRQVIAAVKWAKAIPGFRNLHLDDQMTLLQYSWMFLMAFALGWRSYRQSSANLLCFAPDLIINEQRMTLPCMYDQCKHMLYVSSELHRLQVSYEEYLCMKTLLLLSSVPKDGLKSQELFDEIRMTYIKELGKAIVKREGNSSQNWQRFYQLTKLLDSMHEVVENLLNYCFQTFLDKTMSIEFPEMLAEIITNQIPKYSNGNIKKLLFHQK

[3] = biological target: T3, Mineralocorticoid receptor (Homo sapiens, UniProt P08235); test: Binding affinity towards mineralocorticoid receptor using fluorescence polarization competitive binding assay
T3 sequence (P08235 whole entry): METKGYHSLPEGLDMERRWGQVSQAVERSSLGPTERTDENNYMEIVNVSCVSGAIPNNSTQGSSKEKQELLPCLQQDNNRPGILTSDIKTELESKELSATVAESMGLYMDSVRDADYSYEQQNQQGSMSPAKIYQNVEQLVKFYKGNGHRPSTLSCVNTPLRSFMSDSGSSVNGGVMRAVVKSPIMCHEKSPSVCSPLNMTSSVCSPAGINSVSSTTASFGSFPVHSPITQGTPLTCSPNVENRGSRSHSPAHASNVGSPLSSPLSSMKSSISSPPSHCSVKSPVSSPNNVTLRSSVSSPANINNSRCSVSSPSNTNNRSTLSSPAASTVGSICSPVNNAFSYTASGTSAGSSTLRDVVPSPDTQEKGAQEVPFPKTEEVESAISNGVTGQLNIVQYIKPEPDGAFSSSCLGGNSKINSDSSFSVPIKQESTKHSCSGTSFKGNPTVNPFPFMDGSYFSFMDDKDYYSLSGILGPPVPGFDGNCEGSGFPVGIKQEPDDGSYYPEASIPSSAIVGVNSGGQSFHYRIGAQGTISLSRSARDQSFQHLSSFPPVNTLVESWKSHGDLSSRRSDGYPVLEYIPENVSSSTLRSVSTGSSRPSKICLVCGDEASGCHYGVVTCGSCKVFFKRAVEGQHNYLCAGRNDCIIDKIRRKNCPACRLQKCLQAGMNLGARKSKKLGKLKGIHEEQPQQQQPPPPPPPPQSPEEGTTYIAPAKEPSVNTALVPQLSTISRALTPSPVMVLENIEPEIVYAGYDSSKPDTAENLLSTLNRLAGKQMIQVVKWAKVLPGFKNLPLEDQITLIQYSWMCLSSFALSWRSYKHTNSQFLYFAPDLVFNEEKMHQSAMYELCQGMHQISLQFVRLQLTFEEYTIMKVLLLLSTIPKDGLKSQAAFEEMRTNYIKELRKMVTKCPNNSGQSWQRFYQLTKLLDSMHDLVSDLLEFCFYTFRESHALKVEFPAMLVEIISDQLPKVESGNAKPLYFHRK

[4] = biological target: T2, Glucocorticoid receptor; test: Effective agonist concentration for transcriptional repression of IL-6 production in IL-1 stimulated human foreskin fibroblasts; type: functional
[5] = biological target: T2, Glucocorticoid receptor; test: Effective concentration against inhibition of Dexamethasone induced glucocorticoid receptor transactivation of mouse mammary tumor virus luciferase gene in HeLa cells; type: cell-based

| SMILES | pIC50 [1] | pIC50 [2] | pIC50 [3] | pEC50 [4] | pEC50 [5] |
| --- | --- | --- | --- | --- | --- |
| CC(C)(CC(O)(CC1CCCCC1)C(=O)Nc1ccc2c(c1)COC2=O)c1ccccc1 (stereo in doubt) | 6.68 | 6.49 |  |  |  |
| Cc1ccccc1CC(O)(CC(C)(C)c1cc(F)ccc1O)C(=O)Nc1ccc2c(c1)COC2=O (stereo unspecified) | 7.44 | 7.32 |  |  |  |
| Cc1noc(=O)c2ccc(NC(=O)C(O)(CC(C)(C)c3cc(F)ccc3O)C(F)(F)F)cc12 (stereo unspecified) | 7.66 | 8.40 | 7.39 | 8.00 |  |
| COc1ccc(F)cc1C(C)(C)CC(O)(CNc1ccc2c(c1)COC2=O)Cc1ccccc1 (stereo unspecified) | 7.10 | 7.09 | 6.71 |  | 6.21 |
| CC(C)(CC(O)(CC1CCCCC1)C(=O)Nc1ccc2c(c1)COC2=O)c1cc(F)ccc1O (stereo unspecified) | 7.38 | 7.70 | 6.85 |  | 6.89 |
| CC(C)(CC(O)(Cc1cc(O)cc(O)c1)C(=O)Nc1ccc2c(c1)COC2=O)c1ccccc1 (stereo unspecified) | 6.80 | < 5.70 |  |  |  |
| CC(C)(CC(Cc1ccccc1)C(=O)Nc1ccc2c(c1)COC2=O)c1ccccc1 (stereo unspecified) | 5.70 | < 5.70 |  |  |  |
| Cc1cccc(CC(O)(CC(C)(C)c2cc(F)ccc2O)C(=O)Nc2ccc3c(c2)COC3=O)c1 (stereo unspecified) | 7.47 | 7.28 |  |  |  |
| CC(C)(CC(O)(C(=O)Nc1ccc2c(c1)COC2=O)c1ccccc1)c1ccccc1 (stereo unspecified) | 6.62 | 6.34 |  |  |  |
| CC(C)(CC(O)(CC1CCCCC1)C(=O)Nc1ccc2c(c1)COC2=O)c1ccccc1 (stereo in doubt; 6) | 7.72 | 8.05 | 6.77 |  | 6.85 |
| Cc1noc(=O)c2ccc(NC(=O)C(O)(CC3CCCCC3)CC(C)(C)c3ccccc3)cc12 (stereo unspecified) | 7.40 | 8.05 |  |  |  |
| Cc1noc(=O)c2ccc(NC(=O)C(O)(CC3CCCCC3)CC(C)(C)c3cc(F)ccc3O)cc12 (stereo unspecified) | 7.46 | 8.15 | 6.98 |  | 6.92 |
| Cc1noc(=O)c2ccc(NC(=O)C(O)(Cc3ccccc3)CC(C)(C)c3cc(F)ccc3O)cc12 (stereo unspecified) | 7.49 | 8.10 | 6.98 |  | 6.89 |
| CC(C)(CC(O)(Cc1ccccn1)C(=O)Nc1ccc2c(c1)COC2=O)c1ccccc1 (stereo unspecified) | 6.40 | 6.12 |  |  |  |
| CC(C)(CC(O)(Cc1ccc2ccccc2c1)C(=O)Nc1ccc2c(c1)COC2=O)c1ccccc1 (stereo unspecified) | 7.32 | 6.96 |  |  |  |
| CC(C)(CC(O)(Cc1ccccc1O)C(=O)Nc1ccc2c(c1)COC2=O)c1ccccc1 (stereo unspecified) | 7.33 | 7.21 |  |  |  |

| SMILES | pIC50 [1] | pIC50 [2] | pIC50 [3] | pEC50 [4] | pEC50 [5] |
| --- | --- | --- | --- | --- | --- |
| CC(C)(CC(O)(C(=O)Nc1ccc2c(c1)COC2=O)C(F)(F)F)c1cc(F)ccc1O (stereo unspecified) | 7.80 | 8.22 | 7.52 | 7.35 | 6.82 |
| CC(C)(CC(O)(Cc1ccccc1)C(=O)Nc1ccc2c(c1)COC2=O)c1ccccc1 (stereo unspecified) | 7.52 | 7.89 | 6.80 |  | 6.69 |
| CC(C)(CC(O)(Cc1ccc(-c2ccccc2)cc1)C(=O)Nc1ccc2c(c1)COC2=O)c1ccccc1 (stereo unspecified) | 6.74 | 6.13 |  |  |  |
| CC(C)(CC(O)(Cc1cccc(O)c1)C(=O)Nc1ccc2c(c1)COC2=O)c1ccccc1 (stereo unspecified) | 7.36 | 6.92 |  |  |  |
| Cc1cc(C)cc(CC(O)(CC(C)(C)c2cc(F)ccc2O)C(=O)Nc2ccc3c(c2)COC3=O)c1 (stereo unspecified) | 7.29 | 6.33 |  |  |  |
| CC(C)(CC(O)(CC1CCCCC1)C(=O)Nc1ccc2c(c1)COC2=O)c1ccccc1 (single isomer, unassigned) | 7.46 | 8.05 |  |  |  |
| CC(C)(CC(O)(CCc1ccccc1)C(=O)Nc1ccc2c(c1)COC2=O)c1ccccc1 (stereo unspecified) | 7.23 | 7.24 |  |  |  |
| Cc1noc(=O)c2ccc(NC(=O)C(O)(Cc3ccccc3)CC(C)(C)c3ccccc3)cc12 (stereo unspecified) | 7.52 | 8.15 |  |  |  |
| CC(C)(CC(O)(C(=O)Nc1ccc2c(c1)COC2=O)C(F)(F)F)c1ccccc1 (stereo unspecified) | 7.44 | 7.10 | 6.67 |  | 6.82 |
| CC(C)(CC(O)C(=O)Nc1ccc2c(c1)COC2=O)c1ccccc1 (stereo unspecified) | < 5.70 | < 5.70 |  |  |  |
| CC(C)(CC(O)(Cc1ccccc1)C(=O)Nc1ccc2c(c1)COC2=O)c1cc(F)ccc1O (stereo unspecified) | 7.46 | 7.22 | 6.72 |  | 6.38 |
| CC(O)(CC(C)(C)c1ccccc1)C(=O)Nc1ccc2c(c1)COC2=O (stereo unspecified) | 7.07 | 6.43 | 7.22 |  | 5.63 |
| COc1ccc(F)cc1C(C)(C)CC(O)(Cc1ccccc1)C(=O)Nc1ccc2c(c1)COC2=O (stereo unspecified) | 7.46 | 7.28 |  |  |  |
| CC(C)C(O)(CC(C)(C)c1ccccc1)C(=O)Nc1ccc2c(c1)COC2=O (stereo unspecified) | 6.68 | 6.70 | 6.50 |  | 6.21 |
| CC(C)(C)c1ccc(CC(O)(CC(C)(C)c2ccccc2)C(=O)Nc2ccc3c(c2)COC3=O)cc1 (stereo unspecified) | 6.48 | 7.14 | 6.76 |  | 6.12 |
| COc1ccc(F)cc1C(C)(C)CC(O)(C(=O)Nc1ccc2c(c1)COC2=O)C(F)(F)F (stereo unspecified) | 7.07 | 6.64 |  |  |  |
